Blank lines part the entries; values can stand above or below the compound they belong to. Activity calls are given as the source filed them. No cut-off for these calls is given here.
What was measured:
Protein Mdm4 = biological target: T1, Protein Mdm4 (Homo sapiens, UniProt O15151); test: Binding affinity to MDMX (unknown origin) after 20 mins by HTRF assay
T1 sequence (O15151 whole entry): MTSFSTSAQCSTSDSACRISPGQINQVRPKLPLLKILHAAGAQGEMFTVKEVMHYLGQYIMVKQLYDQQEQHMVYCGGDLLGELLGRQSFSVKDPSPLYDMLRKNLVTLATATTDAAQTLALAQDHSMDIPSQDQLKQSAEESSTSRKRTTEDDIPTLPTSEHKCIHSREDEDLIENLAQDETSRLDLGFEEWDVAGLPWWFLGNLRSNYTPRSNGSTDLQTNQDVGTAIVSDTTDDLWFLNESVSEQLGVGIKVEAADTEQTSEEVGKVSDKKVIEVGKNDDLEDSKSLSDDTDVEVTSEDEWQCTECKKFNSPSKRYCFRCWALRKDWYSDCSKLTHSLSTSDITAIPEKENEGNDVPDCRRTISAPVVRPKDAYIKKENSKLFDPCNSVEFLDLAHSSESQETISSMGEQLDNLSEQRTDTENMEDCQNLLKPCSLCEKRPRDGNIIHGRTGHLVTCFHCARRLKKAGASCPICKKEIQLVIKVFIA

[1] = biological target: T2, E3 ubiquitin-protein ligase Mdm2 (Homo sapiens, UniProt Q00987); test: Inhibition of human recombinant GST-thrombin-MDM2 (1 to 188) expressed in Escherichia coli assessed as reduction of MDM2-p53 interaction incubated for 20 mins followed by p53 addition measured after 60 mins by HTRF assay
[2] = Drug uptake in tumor of athymic nude mouse xenografted with human SJSA1 cells at 100 mg/kg, po qd after 7 hrs; format: ADME, organism-based, Neoplasm, SJSA-1; design: dose 100 mg/kg, route oral; conditions: read-out: Drug uptake
[3] = Fraction unbound in rat plasma; format: ADME, cell-free
[4] = Drug uptake in tumor of athymic nude mouse xenografted with human SJSA1 cells at 30 mg/kg, po qd after 7 hrs; format: ADME, organism-based, Neoplasm, SJSA-1; design: dose 30 mg/kg, route oral; conditions: read-out: Drug uptake
[5] = Clearance in athymic nude mouse at 1 mg/kg, iv; format: ADME, organism-based; design: dose 1 mg/kg, route intravenous; conditions: in vivo
[6] = Drug uptake in tumor of athymic nude mouse xenografted with human SJSA1 cells at 300 mg/kg, po qd after 7 hrs; format: ADME, organism-based, Neoplasm, SJSA-1; design: dose 300 mg/kg, route oral; conditions: read-out: Drug uptake
[7] = Fraction unbound in mouse plasma; format: ADME, cell-free
[8] = Half life in athymic nude mouse at 1 mg/kg, iv; format: ADME, organism-based; design: dose 1 mg/kg, route intravenous; conditions: in vivo
Mus musculus = organism: Mus musculus; conditions: SJSA-1, 30 to 100 mg/kg
Description: In vivo inhibition of MDM2 in human SJSA1 cells xenografted in athymic nude mouse assessed as upregulation of p21 mRNA level at 30 to 100 mg/kg, po qd after 7 hrs by qRT-PCR analysis

[9] = Volume of distribution at steady state in athymic nude mouse at 1 mg/kg, iv; format: ADME, organism-based; design: dose 1 mg/kg, route intravenous; conditions: in vivo, read-out: Vdss
[10] = AUC in athymic nude mouse at 5 mg/kg, po; format: ADME, organism-based; design: dose 5 mg/kg, route oral; conditions: plasma
[11] = Oral bioavailability in athymic nude mouse at 5 mg/kg; format: ADME, organism-based; conditions: in vivo
[12] = Fraction unbound in human plasma; format: ADME, cell-free
[13] = Plasma concentration in athymic nude mouse xenografted with human SJSA1 cells at 300 mg/kg, po qd after 7 hrs; format: ADME, organism-based, SJSA-1; design: dose 300 mg/kg, route oral
[14] = biological target: T2, E3 ubiquitin-protein ligase Mdm2; test: Inhibition of human recombinant GST-thrombin-MDM2 (1 to 188) expressed in Escherichia coli assessed as reduction of MDM2-p53 interaction incubated for 20 mins followed by p53 addition measured after 60 mins by HTRF assay in presence of 15% serum

T2 sequence (Q00987 whole entry): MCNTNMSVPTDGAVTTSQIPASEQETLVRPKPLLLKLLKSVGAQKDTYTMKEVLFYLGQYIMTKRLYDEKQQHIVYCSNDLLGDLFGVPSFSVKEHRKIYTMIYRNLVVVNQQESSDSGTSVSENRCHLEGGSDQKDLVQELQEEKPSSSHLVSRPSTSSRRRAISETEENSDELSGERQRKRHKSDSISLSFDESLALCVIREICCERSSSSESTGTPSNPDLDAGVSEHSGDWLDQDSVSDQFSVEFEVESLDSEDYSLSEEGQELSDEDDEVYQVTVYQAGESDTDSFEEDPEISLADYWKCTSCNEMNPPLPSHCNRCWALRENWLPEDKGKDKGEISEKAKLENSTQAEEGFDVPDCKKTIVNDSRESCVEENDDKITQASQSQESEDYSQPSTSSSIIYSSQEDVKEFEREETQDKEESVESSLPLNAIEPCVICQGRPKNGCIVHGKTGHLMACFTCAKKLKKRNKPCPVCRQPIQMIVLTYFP

SMILES: CN1C(=O)[C@H](Cc2ccccc2)O[C@@H](c2ccc(Br)cc2)[C@H]1c1ccc(Br)cc1
IC50 (Protein Mdm4): > 30 µM

SMILES: O=C(O)C[C@@H]1O[C@@H](c2cccc(Cl)c2)[C@@H](c2ccc(Cl)cc2)N(CC2CC2)C1=O
concentration at 7 h [2]: 2.1 µM
fraction unbound [3]: 0.06
concentration at 7 h [4]: 0.3 µM
clearance [5]: 28.3 mL/min/kg
concentration at 7 h [6]: 22.9 µM
IC50 (Protein Mdm4): > 30 µM
fraction unbound [7]: 0.059
half-life [8]: 4.1 h
inhibition (Mus musculus): inactive
Vd [9]: 3.9 L/kg
AUC [10]: 4.1 µM·h
bioavailability [11]: 59%
fraction unbound [12]: 0.042
concentration at 7 h [13]: 102 µM

SMILES: CN1C[C@H](Cc2ccccc2)O[C@@H](c2ccc(Br)cc2)[C@H]1c1ccc(Br)cc1 (racemic)
IC50 [1]: > 30 µM

SMILES: COc1ccc([C@H]2CC(=O)C=C(c3ccc(Cl)cc3)[C@@H]2c2ccc(Cl)cc2)cc1OC (racemic)
IC50 [1]: > 30 µM

Other lines, results leading:

IC50 (Protein Mdm4): > 30 µM
SMILES: CCC[C@H](C(=O)O)N1C(=O)[C@H](Cc2ccc(F)cc2)O[C@@H](c2ccc(Cl)cc2)[C@H]1c1ccc(Cl)cc1

IC50 [1]: > 30 µM
SMILES: CC(C)(C)OC(=O)N1CC(=O)N[C@H](c2ccc(Br)cc2)[C@@H]1c1ccc(Br)cc1 (racemic)

IC50 (Protein Mdm4): > 30 µM
SMILES: O=C(O)C[C@H]1C[C@H](c2cccc(Cl)c2)[C@@H](c2ccc(Cl)cc2)N(CC2CC2)C1=O

IC50 [1]: > 30 µM
IC50 [14]: > 30 µM
SMILES: CN1C(=O)CO[C@@H](c2ccc(Cl)cc2)[C@H]1c1cccc(Cl)c1 (racemic)

— ChEMBL document CHEMBL2346599, “Rational design and binding mode duality of MDM2-p53 inhibitors” (J Med Chem, 2013)
